Data on five molecules can be found in ChEMBL document CHEMBL1201862, “PubChem BioAssay data set” (2004).

Among the test systems are SNB-19; HCC 2998; SK-OV-3; OVCAR-8; COLO 205; EKVX; SN12C; Malme-3M; SK-MEL-5; MOLT-4; OVCAR-4; UO-31; NCI-H23; U-251; SF-295; TK-10; LOX IMVI; SF-268; OVCAR-3; NCI-H460.
Assay in all cases: NCI anticancer screen, dose series, 48 h

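Briefly, cells in 96-well plates were exposed to five compound concentrations for 48 h, and endpoints were estimated by linear interpolation. GI50: concentration for 50% inhibition of growth.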 Calls of active or inactive are those of the source. Cut-off read from the data, not from the text of the source: active = GI50 up to about 1.1 µM and inactive = higher.

In the case of `CCCCC(CC)C(=O)Oc1ccc(C(=O)c2ccccc2)c(O)c1` (stereo not given), the GI50 with SNB-19 is 68.9 µM (inactive); in the assay on HCC 2998, 52.8 µM (inactive); in the assay with SK-OV-3, > 100 µM (inactive); with OVCAR-8, 44.9 µM (inactive); in the assay with COLO 205, 61.2 µM (inactive); in the assay on EKVX it was 35.6 µM (inactive). The GI50 in the assay on SN12C is 44.4 µM (inactive); with Malme-3M it was 40.6 µM (inactive); in the assay on SK-MEL-5 it was 39.6 µM (inactive); in the assay on MOLT-4, 24.9 µM (inactive); in the assay with OVCAR-4, 31 µM (inactive); in the assay on UO-31, 20.9 µM (inactive). For the same molecule, the GI50 was 35.2 µM (inactive) with NCI-H23; 46.7 µM (inactive) in the assay with U-251; 29.4 µM (inactive) in the assay on SF-295; 58.7 µM (inactive) in the assay with TK-10; 44.6 µM (inactive) in the assay on LOX IMVI; 34.5 µM (inactive) with SF-268. For the same molecule, the values for the GI50 in the assay on OVCAR-3 and in the assay with NCI-H460 were 40.5 µM (inactive) and 35 µM (inactive), respectively.
`Brc1ccc2[nH]cc([C@@H]3CN[C@@H](c4c[nH]c5ccc(Br)cc45)CN3)c2c1`: the GI50 was 11.4 µM (inactive) in the assay with SNB-19; 6.52 µM (inactive) with HCC 2998; 12.7 µM (inactive) in the assay on SK-OV-3; 3.63 µM (inactive) in the assay with OVCAR-8; 1.96 µM (inactive) with COLO 205; 5.57 µM (inactive) with EKVX. Besides, the GI50 in the assay on SN12C is 6.04 µM (inactive); with Malme-3M, 14.8 µM (inactive); with SK-MEL-5 it was 7.93 µM (inactive); in the assay on MOLT-4 it was 1.98 µM (inactive); with OVCAR-4, 4.76 µM (inactive); with UO-31, 2.42 µM (inactive). The GI50 in the assay on NCI-H23 was 9.95 µM (inactive); with U-251 it was 4.39 µM (inactive); in the assay on SF-295, 3.72 µM (inactive); with TK-10, 6.92 µM (inactive); with LOX IMVI, 1.66 µM (inactive); in the assay on SF-268, 10.4 µM (inactive). For the same molecule, the GI50 in the assay with OVCAR-3 was 4.8 µM (inactive); in the assay on NCI-H460 it was 7.57 µM (inactive).
`CCOC(=O)/C=C1/C(CCCOCc2ccccc2)C2CCCC23CC2(CCN13)OCCO2` (stereo not given): the GI50 in the assay with SNB-19 is 33.3 µM (inactive); in the assay on HCC 2998 it was 25.8 µM (inactive); with SK-OV-3 it was 43 µM (inactive); in the assay with OVCAR-8 it was 24.8 µM (inactive); with COLO 205, 19.1 µM (inactive); with EKVX it was 34.8 µM (inactive). The GI50 in the assay on SN12C is 25.5 µM (inactive); in the assay on Malme-3M it was 16.1 µM (inactive); with SK-MEL-5, 15.7 µM (inactive); with MOLT-4, 11.4 µM (inactive); in the assay with OVCAR-4, 24.3 µM (inactive); with UO-31, 17.2 µM (inactive). For the same molecule, the GI50 in the assay with NCI-H23 was 12.5 µM (inactive); with U-251, 20.1 µM (inactive); in the assay with SF-295, 23.6 µM (inactive); in the assay with TK-10, 36.2 µM (inactive); in the assay on LOX IMVI, 18.1 µM (inactive); with SF-268, 42 µM (inactive). The figures for the GI50 in the assay with OVCAR-3 and in the assay with NCI-H460 were 18.3 µM (inactive) and 18.7 µM (inactive), respectively.
`CSCCCNC(=O)c1csc(-c2csc(CCNC(=O)CNC(=O)CNC(=O)CNC(=O)OC(C)(C)C)n2)n1`: the GI50 in the assay on SNB-19, with HCC 2998, in the assay on SK-OV-3, with OVCAR-8, in the assay with COLO 205 and in the assay on EKVX was > 100 µM (inactive) each time. Moreover, the GI50 with SN12C, in the assay with Malme-3M, with SK-MEL-5, in the assay with MOLT-4, in the assay on OVCAR-4 and in the assay on UO-31 was > 100 µM (inactive) in each case. The GI50 with NCI-H23, with U-251, with SF-295, in the assay on TK-10, in the assay on LOX IMVI and in the assay with SF-268 was > 100 µM (inactive) each time. The GI50 with OVCAR-3 and with NCI-H460 was > 100 µM (inactive) in each case.
Turning to `CC1=C(SCCO)C(=O)c2ccccc2C1=O`, the GI50 in the assay with SNB-19 is 25.4 µM (inactive); in the assay on HCC 2998, 16.6 µM (inactive); with SK-OV-3 it was 16 µM (inactive); in the assay with OVCAR-8 it was 12.4 µM (inactive); with COLO 205, 11.1 µM (inactive); in the assay on EKVX, 8.41 µM (inactive). The GI50 with SN12C was 15.6 µM (inactive); with Malme-3M it was 14.2 µM (inactive); in the assay on SK-MEL-5, 13.3 µM (inactive); in the assay on MOLT-4, 0.324 µM (active); with OVCAR-4, 3.31 µM (inactive); in the assay on UO-31 it was 8.63 µM (inactive). The GI50 is 12.6 µM (inactive) in the assay with NCI-H23; 13.3 µM (inactive) in the assay with U-251; 17.2 µM (inactive) with SF-295; 16.8 µM (inactive) in the assay on TK-10; 12.1 µM (inactive) with LOX IMVI; 15.5 µM (inactive) with SF-268. Besides, the values for the GI50 in the assay on OVCAR-3 and in the assay with NCI-H460 were 2.82 µM (inactive) and 13.2 µM (inactive), respectively.
